This note sets out measurements from paper PMC4684791 (Bioorganic & medicinal chemistry letters, 2015).

One may read the half-life as the time needed for the level to fall by half in the phase considered.

The series is described as follows: Microsomal stability assay. Type of series: in vitro ADME, rat.

Molecules are shown by their SMILES.

For the compound `COc1cc(NC(=O)c2ccccn2)ccc1Cl` [Compound 2, ML128], under “rat liver microsome, t1/2=ln2/κ”, the “Stability κ (decay constant, slope of log concentration vs time profile)” value is listed as 0.116 min^−1. The half-life (rat, liver microsomes) was found to be 5.99 min.
